Measurements reported in US20240391931A1 (Bristol-Myers Squibb Company, priority 2021, published 2024).

Legend:
HER2 WT = molecular target: T1, HER2 WT (Homo sapiens, UniProt P04626); test: Enzymatic assay HER2 WT (method a); type: biochemical; details: [HER2 WT]=12.5 nM, [ATP]=25 μM, [Peptide 22]=1 μM
T1 construct: purchased ProQinase, Freiburg, Germany ERBB2 0108-0000-1
Description: (§1) A 2× stock solution of HER2 WT (ERBB2 0108-0000-1; ProQinase, Freiburg, Germany) corresponding to method a, was prepared as described below. Alternatively, a 2× stock solution of HER2YVMA (custom purification; Viva biotech, Shanghai, China) corresponding to method b, was prepared as described below. For method c, a 2× stock of EGFR (ERBB1 PR7295B, Thermo Fisher, Carlsbad, CA) was prepared as described below. All 2× solutions were prepared in buffer containing 50 mM HEPES, pH 7.5, 10 mM MnCl2, MgCl2, 0.005% Tween 20, 1 mM TCEP. 25 ul of 2× enzyme solution was added to a Seahorse low volume 384-well polypropylene assay plate (201288-100, Seahorse Bioscience, Chicopee, MA) containing 1 μl of compound serially diluted in 50% DMSO. To initiate the reaction, 25 μl of solution containing 2× final concentration of ATP and ProfilerPro Peptide 22 (760366, Perkin Elmer Hopkinton, MA) was added to each well. The reactions were separated on an LC3000 (Caliper Life Sciences) or a LabChip EZReader (Perkin Elmer) in kinetic mode.
(§2) At the conclusion of each assay, the data were exported from the instrument as a .rda file (LC3000) and processed in proprietary software, EZReviewer, which determines the percent of substrate converted to product within a given cycle as (P/P+S)*100 by measuring the amplitude of substrate and product peaks. Cycle time varied with amount of compounds tested between 8 and 12 cycles. Initial velocity (0-3600 s) from each reaction was determined from the slope of a plot of percent conversion at each cycle versus time (seconds). Percent inhibition was determined by dividing the slope of each reaction by the uninhibited control using 100*(1-(x/uninhibited control)). IC50 estimates were obtained by plotting the concentration of inhibitor versus percent inhibition in GraphPad Prism (GraphPad Software, San Diego, CA) using log[inhibitor] versus Response (Variable Slope Model); Y=Min+((Max-Min)/(1+((IC50/x)^Hillslope)))
(§3) • a) [HER2 WT]=12.5 nM, [ATP]=25 μM, [Peptide 22]=1 μM (ATP KMapp˜25 μM) • b) [HER2YVMA]=5 nM, [ATP]=25 μM, [Peptide 22]=1 μM (ATP KMapp˜15 μM) • c) [EGFR WT]=2 nM, [ATP]=1 mM, [Peptide 22]=1 μM (ATP KMapp˜25 μM)

HER2YVMA = HER2YVMA (Homo sapiens, UniProt P04626, INS775YVMA); test: Enzymatic assay HER2YVMA (method b); type: biochemical; design: purchased Viva biotech, Shanghai, China custom purification; details: [HER2YVMA]=5 nM, [ATP]=25 μM, [Peptide 22]=1 μM
HER2YVMA, sequence (P04626 with tags, fused parts or gaps INS775YVMA): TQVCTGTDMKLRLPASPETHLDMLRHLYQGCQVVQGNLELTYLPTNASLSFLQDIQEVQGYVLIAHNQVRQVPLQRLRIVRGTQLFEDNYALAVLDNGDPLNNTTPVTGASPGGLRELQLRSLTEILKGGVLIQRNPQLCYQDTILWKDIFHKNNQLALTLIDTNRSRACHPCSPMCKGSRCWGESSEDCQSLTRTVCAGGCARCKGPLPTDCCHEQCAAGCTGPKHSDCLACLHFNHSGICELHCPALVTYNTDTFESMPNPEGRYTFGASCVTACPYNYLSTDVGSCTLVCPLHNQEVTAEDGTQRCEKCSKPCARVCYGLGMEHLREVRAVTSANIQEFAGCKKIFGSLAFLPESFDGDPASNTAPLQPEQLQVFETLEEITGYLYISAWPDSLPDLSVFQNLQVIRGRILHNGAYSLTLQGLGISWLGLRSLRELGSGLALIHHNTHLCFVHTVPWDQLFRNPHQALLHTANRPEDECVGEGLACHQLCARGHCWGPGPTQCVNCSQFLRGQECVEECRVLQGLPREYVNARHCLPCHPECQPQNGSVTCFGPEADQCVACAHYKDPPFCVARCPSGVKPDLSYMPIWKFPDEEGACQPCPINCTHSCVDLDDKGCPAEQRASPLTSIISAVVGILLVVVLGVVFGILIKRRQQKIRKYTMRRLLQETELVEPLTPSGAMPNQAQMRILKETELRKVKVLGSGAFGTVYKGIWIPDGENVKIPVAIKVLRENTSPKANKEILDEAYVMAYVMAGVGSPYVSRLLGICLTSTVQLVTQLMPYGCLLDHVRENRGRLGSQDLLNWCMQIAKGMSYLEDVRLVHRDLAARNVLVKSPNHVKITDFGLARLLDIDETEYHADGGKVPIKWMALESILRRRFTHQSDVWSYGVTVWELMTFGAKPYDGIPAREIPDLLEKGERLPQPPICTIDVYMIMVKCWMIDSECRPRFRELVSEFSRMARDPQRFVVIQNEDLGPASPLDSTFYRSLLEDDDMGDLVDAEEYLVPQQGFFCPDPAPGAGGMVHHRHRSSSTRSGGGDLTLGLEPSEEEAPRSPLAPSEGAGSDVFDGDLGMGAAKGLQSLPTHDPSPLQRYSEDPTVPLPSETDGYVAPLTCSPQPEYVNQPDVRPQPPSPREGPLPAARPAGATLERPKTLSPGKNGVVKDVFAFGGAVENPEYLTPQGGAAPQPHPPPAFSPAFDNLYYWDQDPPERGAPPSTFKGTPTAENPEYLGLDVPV
Description: as §1, §2, §3

EGFR WT = molecular target: T2, EGFR WT (Homo sapiens, UniProt P00533); test: Enzymatic assay EGFR WT (method c); type: biochemical; details: [EGFR WT]=2 nM, [ATP]=1 mM, [Peptide 22]=1 μM
T2 construct: purchased Thermo Fisher, Carlsbad, CA ERBB1 PR7295B
Description: as §1, §2, §3

EGFR = EGFR (Homo sapiens, UniProt P00533); test: EGFR signaling (pEGFR Tyr1068/total EGFR MSD) in A431 cells; type: cell-based; design: endogenous in cells; host or cells: A431, N87; details: for EC50: A431 cells, read-out: A431 pEGFR EC50; for Selectivity A431 EC50/BT474 EC50: ratio A431 pEGFR EC50 to BT474 pHER2 EC50
EGFR, sequence (P00533 25-1210): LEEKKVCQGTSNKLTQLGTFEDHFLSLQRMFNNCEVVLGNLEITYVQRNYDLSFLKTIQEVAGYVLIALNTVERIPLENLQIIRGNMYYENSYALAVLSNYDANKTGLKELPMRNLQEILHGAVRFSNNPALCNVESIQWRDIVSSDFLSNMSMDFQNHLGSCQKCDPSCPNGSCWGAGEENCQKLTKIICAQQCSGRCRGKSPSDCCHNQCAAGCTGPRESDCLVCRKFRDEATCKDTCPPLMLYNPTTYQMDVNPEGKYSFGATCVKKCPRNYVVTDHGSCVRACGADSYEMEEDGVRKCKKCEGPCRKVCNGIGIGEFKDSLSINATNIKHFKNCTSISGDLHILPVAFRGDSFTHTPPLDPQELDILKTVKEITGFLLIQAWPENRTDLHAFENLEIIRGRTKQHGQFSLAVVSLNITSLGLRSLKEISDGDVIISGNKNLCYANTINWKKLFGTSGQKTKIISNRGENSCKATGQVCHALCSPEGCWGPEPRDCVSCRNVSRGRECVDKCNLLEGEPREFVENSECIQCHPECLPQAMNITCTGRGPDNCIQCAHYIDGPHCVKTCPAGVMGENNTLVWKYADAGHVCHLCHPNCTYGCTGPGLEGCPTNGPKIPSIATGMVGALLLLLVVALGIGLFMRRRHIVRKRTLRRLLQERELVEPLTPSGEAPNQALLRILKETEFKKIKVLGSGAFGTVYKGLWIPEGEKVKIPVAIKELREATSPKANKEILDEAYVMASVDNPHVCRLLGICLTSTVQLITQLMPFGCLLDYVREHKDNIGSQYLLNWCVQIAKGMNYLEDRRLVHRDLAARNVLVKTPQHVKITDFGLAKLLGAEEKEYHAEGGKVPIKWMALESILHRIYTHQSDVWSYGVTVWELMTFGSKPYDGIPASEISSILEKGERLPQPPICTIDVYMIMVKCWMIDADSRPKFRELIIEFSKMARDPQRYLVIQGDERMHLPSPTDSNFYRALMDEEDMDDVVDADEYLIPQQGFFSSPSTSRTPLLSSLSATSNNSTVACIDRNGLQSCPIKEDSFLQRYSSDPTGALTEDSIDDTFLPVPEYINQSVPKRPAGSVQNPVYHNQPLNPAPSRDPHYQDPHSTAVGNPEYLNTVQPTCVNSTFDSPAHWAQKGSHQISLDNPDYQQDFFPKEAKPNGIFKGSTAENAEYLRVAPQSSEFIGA
Description: (§4) In addition to the engineered cell lines, the following cell lines were used: BT474 (human breast carcinoma), N87 (human gastric carcinoma), NCI-H1781 (human lung adenocarcinoma), and A431 (human epidermoid carcinoma); all cell lines were obtained from the American Type Culture Collection (ATCC, Manassas, VA). NCI-H1781 were grown in complete RPMI 1640 (Life Technologies, Carlsbad, CA) supplemented with 15% fetal bovine serum (FBS, Life Technologies, Carlsbad, CA) and 1% Penicillin-Streptomycin (P/S, Life Technologies, Carlsbad, CA). N87 cells were grown in complete RPMI 1640 supplemented with 10% FBS and 1% P/S. BT474 and A431 cells were grown in DMEM (Life Technologies, Carlsbad, CA) supplemented with 10% FBS and 1% P/S. All cells were maintained and propagated in a humidified 5% CO2 incubator at 37° C.
A431 Cells were plated in 96-well tissue-culture treated plates in full media for 6 h, then starved with media containing 0.1% FBS for overnight. Media was replaced with low serum media (1% FBS) containing compound at 10, 3.3, 1.1, 0.37, 0.12, 0.041, 0.014, 0.005 μM or DMSO control (0.1%). Cells were incubated for 1.5 hr, then stimulated with 100 ng/mL human EGF (PeproTech, Rocky Hill, NJ) for 10 minutes. Cells were washed with cold PBS, and lysed for 30 min on ice in complete MSD lysis buffer (prepared as described in HER2 Signaling Method); lysates were stored at −70° C. until further analysis. EGFR signaling was evaluated using phospho (Tyr 1068)/total EGFR whole cell lysate kit (Meso-Scale Discovery, Gaithersburg, MD). The phospho EGFR signal was normalized to total EGFR for each sample; results are reported as % DMSO control. The normalized data was fitted using a sigmoidal curve analysis program (Graph Pad Prism version 6) with variable Hill slope to determine EC50 values. The results are provided in Table 4, under column titled “A431-pEGFR EC50”.

[1] = molecular target: T3, HER2 wildtype (WT) protein (Homo sapiens, UniProt P04626); test: HER2 signaling (pHER2 Tyr1248/total HER2 MSD) in BT474 cells; type: cell-based; details: 1.5 hr compound, 1% FBS
T3 construct: BT474 and N87 cell lines which endogenously overexpress the HER2 wildtype (WT) protein; endogenous in cells; host or cells: BT474, N87
T3 sequence (P04626 23-1255): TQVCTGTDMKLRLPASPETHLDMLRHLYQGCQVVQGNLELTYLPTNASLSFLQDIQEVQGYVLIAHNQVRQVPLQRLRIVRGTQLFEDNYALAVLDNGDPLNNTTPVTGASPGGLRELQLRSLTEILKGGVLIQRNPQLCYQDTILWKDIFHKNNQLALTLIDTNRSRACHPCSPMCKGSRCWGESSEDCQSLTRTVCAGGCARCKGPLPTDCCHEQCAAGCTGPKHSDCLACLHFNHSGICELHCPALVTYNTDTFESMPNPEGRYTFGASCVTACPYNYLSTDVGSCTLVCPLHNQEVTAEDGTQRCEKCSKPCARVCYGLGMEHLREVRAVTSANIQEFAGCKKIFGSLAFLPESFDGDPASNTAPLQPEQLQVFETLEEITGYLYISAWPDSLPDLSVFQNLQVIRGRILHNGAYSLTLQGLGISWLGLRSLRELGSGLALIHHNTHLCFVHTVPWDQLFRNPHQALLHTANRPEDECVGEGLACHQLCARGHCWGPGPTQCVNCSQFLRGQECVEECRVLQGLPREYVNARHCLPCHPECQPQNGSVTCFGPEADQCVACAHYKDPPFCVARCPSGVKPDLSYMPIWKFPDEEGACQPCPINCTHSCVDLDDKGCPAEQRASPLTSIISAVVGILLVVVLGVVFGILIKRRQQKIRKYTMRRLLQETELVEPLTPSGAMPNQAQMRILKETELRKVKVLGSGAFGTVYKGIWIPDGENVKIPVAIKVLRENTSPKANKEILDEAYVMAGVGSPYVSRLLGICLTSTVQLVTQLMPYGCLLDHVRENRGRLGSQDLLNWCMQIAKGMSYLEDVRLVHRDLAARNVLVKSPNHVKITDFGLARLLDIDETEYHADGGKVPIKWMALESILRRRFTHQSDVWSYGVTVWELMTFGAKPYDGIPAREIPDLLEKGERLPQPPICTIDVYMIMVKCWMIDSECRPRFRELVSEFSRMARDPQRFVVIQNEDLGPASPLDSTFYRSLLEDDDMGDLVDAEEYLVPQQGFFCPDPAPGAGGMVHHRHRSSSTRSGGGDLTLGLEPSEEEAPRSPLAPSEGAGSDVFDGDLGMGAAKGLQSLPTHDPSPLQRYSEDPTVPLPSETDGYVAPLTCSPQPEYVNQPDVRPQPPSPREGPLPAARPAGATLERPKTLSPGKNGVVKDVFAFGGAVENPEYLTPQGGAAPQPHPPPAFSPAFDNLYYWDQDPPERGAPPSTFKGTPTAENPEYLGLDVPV
Description: as §4
HER2 signaling was assessed in BT474 and N87 cell lines which endogenously overexpress the HER2 wildtype (WT) protein, in NCI-H1781 cells which endogenously expresses a HER2 mutant protein containing a VC insertion in the kinase domain (HER2VC or G776delinsVC), and in engineered cell lines transduced to express the Her2 mutant protein containing the YVMA insertion (Hek293-HER2YVMA and BEAS2B-HER2YVMA).
BT474, N87, and NCI-H1781 were plated in 96-well tissue-culture treated plates (Corning Costar, Sigma-Aldrich) in full media and incubated overnight. Hek293-HER2YVMA and BEAS2B-HER2YVMA cells were plated in 96-well poly-D-lysine treated plates (BD Bioscience, San Jose, CA). For treatment with test compounds, the media was replaced with corresponding low serum media (1% FBS) containing test compound at 1.1, 0.37, 0.12, 0.041, 0.014, 0.005, 0.0014, 0.0005 μM or DMSO control (0.1%). Cells were incubated with compound for 1.5 hr at 37° C. After compound treatment, the media was removed and cells were lysed for 30 min on ice in complete MSD lysis buffer (prepared using MSD base lysis buffer (Meso-Scale Discovery) supplemented with cOmplete, EDTA-free Protease inhibitor cocktail (Roche), Phosphatase Inhibitor Cocktails 2 and 3 (Sigma-Aldrich), and 1 mM PMSF (Sigma-Aldrich)). Lysates were stored at −70° C. until further analysis.
HER2 signaling was evaluated using phospho (Tyr1248)/total ErbB2 whole cell lysate MSD plates (Meso-Scale Discovery, Gaithersburg, MD). The phospho HER2 signal was normalized to total HER2 for each sample; results are reported as % DMSO control. The normalized data was fitted using a sigmoidal curve analysis program (Graph Pad Prism version 6) with variable Hill slope to determine EC50 values.
The HER2 signaling results are provided in Table 4, under columns titled “BT474-pHER2 EC50”, “N87-pHER2 EC50”, and “NCI-H1781-pHER2 EC50”. Hek293-HER2YVMA ins fall under the heading “HEKYVMA-pHER2 EC50”, Ba/F3 HER2YVMA fall under the heading “Ba/F3 YVMA-pHER2 EC50” and BEAS2B-HER2YVMA fall under the heading “BEAS2B YVMA-pHER2 EC50”.

T1 sequence (P04626 23-1255): as above

SMILES | IC50 (HER2 WT) | IC50 (HER2YVMA) | IC50 (EGFR WT) | EC50 (EGFR) | Selectivity A431 EC50/BT474 EC50 (EGFR) | EC50 [1]
C=CC(=O)N1CCc2c(sc3ncnc(Nc4ccc(Oc5ccc6ncnn6c5)c(C)c4)c23)C1 [Compound 2, 1-(4-((4-([1,2,4]triazolo[1,5-a]pyridin-6-yloxy)-3-methylphenyl)amino)-5,8-dihydropyrido[4′,3′:4,5]thieno[2,3-d]pyrimidin-7(6H)-yl)prop-2-en-1-one] | < 100 nM | < 100 nM | 1 to 10 µM | – | – | –
Cc1ccc(Oc2ccc(Nc3ncnc4sc5c(c34)CCN(C(=O)/C=C/CN3CC4CCC(C4)C3)C5)cc2C)cn1 [Compound 27] | – | – | 1 to 10 µM | < 100 nM | B (B: ≥ 20 and < 100) | –
Cc1ccc(Oc2ccc(Nc3ncnc4sc5c(c34)CCN(C(=O)/C=C/CN3CCOC(C)(C)C3)C5)cc2C)cn1 [Compound 28] | < 100 nM | 100 to 1000 nM | > 10 µM | < 100 nM | C (C: ≥ 10 and < 20) | < 100 nM
Cc1ccc(Oc2ccc(Nc3ncnc4sc5c(c34)CCN(C(=O)/C=C/CN3CCOCC3(C)C)C5)cc2C)cn1 [Compound 29] | < 100 nM | < 100 nM | > 10 µM | < 100 nM | C (C: ≥ 10 and < 20) | < 100 nM
Cc1ccc(Oc2ccc(Nc3ncnc4sc5c(c34)CCN(C(=O)/C=C/CN3CCOC4(CCC4)C3)C5)cc2C)cn1 [Compound 30] | < 100 nM | 100 to 1000 nM | > 10 µM | 100 to 1000 nM | A (A: ≥100) | < 100 nM
Cc1ccc(Oc2ccc(Nc3ncnc4sc5c(c34)CCN(C(=O)/C=C/CN3CCOCC34CCC4)C5)cc2C)cn1 [Compound 31] | < 100 nM | 100 to 1000 nM | > 10 µM | 100 to 1000 nM | D (D: ≥ 5 and < 10) | < 100 nM
Cc1ccc(Oc2ccc(Nc3ncnc4sc5c(c34)CCN(C(=O)/C=C/CN3CCOC[C@@H]3C)C5)cc2C)cn1 [Compound 32] | < 100 nM | 100 to 1000 nM | > 10 µM | 100 to 1000 nM | B (B: ≥ 20 and < 100) | < 100 nM
Cc1ccc(Oc2ccc(Nc3ncnc4sc5c(c34)CCN(C(=O)/C=C/CN3CC4CC(C4)C3)C5)cc2C)cn1 [Compound 36] | < 100 nM | < 100 nM | 1 to 10 µM | < 100 nM | D (D: ≥ 5 and < 10) | < 100 nM
Cc1cc(Nc2ncnc3sc4c(c23)CCN(C(=O)/C=C/CN2CCOC[C@@H]2C)C4)ccc1Oc1ccc2ncnn2c1 [Compound 79] | 100 to 1000 nM | 100 to 1000 nM | > 10 µM | – | – | –
C[C@H]1COCCN1C/C=C/C(=O)N1CCc2c(sc3ncnc(Nc4ccc(Oc5ccc6ncnn6c5)c(Cl)c4)c23)C1 [Compound 90] | 100 to 1000 nM | 100 to 1000 nM | > 10 µM | – | – | –
Cc1ccc(Oc2ccc(Nc3ncnc4sc5c(c34)CCN(C(=O)/C=C/CN3CCN4CCC3CC4)C5)cc2C)cn1 [Compound 116] | 1000 to 10000 nM | 1000 to 10000 nM | > 10 µM | – | – | –
